biological target: T1, recombinant human Myt1 (Homo sapiens, UniProt Q99640); test: Myt1 enzymatic assay (ADP-Glo kinase assay, IC50 and % max inhibition); type: biochemical; conditions: recombinant human Myt1 18 nM, ATP 10 μM
T1 construct: full length PKMYT1 recombinant human protein expressed in insect cells
T1 sequence (Q99640 1-499): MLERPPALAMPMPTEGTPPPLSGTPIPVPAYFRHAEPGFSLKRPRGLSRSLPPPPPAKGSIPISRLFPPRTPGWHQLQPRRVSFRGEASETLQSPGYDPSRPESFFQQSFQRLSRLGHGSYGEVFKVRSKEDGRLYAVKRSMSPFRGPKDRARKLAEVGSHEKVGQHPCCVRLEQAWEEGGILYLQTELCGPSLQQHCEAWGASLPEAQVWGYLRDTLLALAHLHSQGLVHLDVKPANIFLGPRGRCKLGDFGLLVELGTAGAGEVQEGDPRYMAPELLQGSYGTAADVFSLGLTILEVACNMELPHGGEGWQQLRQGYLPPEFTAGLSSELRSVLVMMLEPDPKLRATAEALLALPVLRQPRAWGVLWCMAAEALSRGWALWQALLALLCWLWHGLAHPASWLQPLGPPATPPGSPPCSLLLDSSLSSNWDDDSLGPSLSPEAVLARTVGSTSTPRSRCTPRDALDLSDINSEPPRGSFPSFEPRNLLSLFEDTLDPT
Procedure: Detection of Myt1 kinase activity utilized a recombinant human Myt1 kinase assay measuring the hydrolysis of ATP using a commercially available ADP-Glo Assay (ADP-Glo™ Kinase Assay from Promega, 10 000 assays, #V9102). […] After this, 5 μL of compounds (diluted in reaction buffer to 0.5% DMSO) was added to the microplate and the plate was spun briefly and incubated at 22° C. for 15 minutes. Ultra-Pure Adenosine Triphosphate (ATP) solution (ADP-Glo kit from Promega) was diluted in reaction buffer and 5 μL was added to the microplate, spun down briefly and incubated for 60 minutes at 30° C. […] After the 60-minute incubation, 15 μL of ADP-Glo reagent was added and the plate was spun briefly and sealed and incubated in the dark for 40 minutes at 22° C. […] Luminescence was read using the Envision (250 ms integration). The IC50 and the % max inhibition were calculated for each inhibitor compound tested.

Row | SMILES | IC50 [nM]
1 | Cc1ccc(O)c(C)c1-n1c(N)c(C(N)=O)c2nc(C(C)(C)F)cnc21 [Compound 178, 6-amino-2-(1-fluoro-1-methyl-ethyl)-5-(3-hydroxy-2,6-dimethyl-phenyl)pyrrolo[2,3-b]pyrazine-7-carboxamide] | < 10
2 | Cc1ccc(O)c(C)c1-n1c(N)c(C(N)=O)c2ncc(C#CC3CCCCO3)nc21 (stereo not drawn) [Compound 224] | 13
3 | Cc1ccc(O)c(C)c1-n1c(N)c(C(N)=O)c2c(C)c(C)cnc21 [Compound 125] | 16
4 | C=Cc1cnc2c(n1)c(C(N)=O)c(N)n2-c1c(C)ccc(O)c1C [Compound 259] | < 10
5 | Cc1ccc(O)cc1-n1c(N)c(C(N)=O)c2nccnc21 [Compound 146] | 1420
6 | Cc1ccc(O)c(C)c1-n1c(N)c(C(N)=O)c2nc(C#CC(=O)Nc3ccc(F)cc3)cnc21 [Compound 283] | 32
7 | Cc1ccc(O)cc1-n1c(N)c(C(N)=O)c2nc(-c3cn[nH]c3)ccc21 [Compound 5] | 277
8 | Cc1ccc(O)cc1-n1c(N)c(C(N)=O)c2nc(CCCC(C)(C)O)ccc21 [Compound 19] | 527
9 | Cc1ccc(O)c(C)c1-n1c(N)c(C(N)=O)c2nc(CCC3CCCN3)cnc21 (stereo not drawn) [Compound 2, 6-amino-5-(3-hydroxy-2,6-dimethylphenyl)-2-(2-(pyrrolidin-2-yl)ethyl)-5H-pyrrolo[2,3-b]pyrazine-7-carboxamide] | 231
10 | Cc1ccc(O)cc1-n1c(N)c(C(N)=O)c2ncc(C(F)(F)F)cc21 [Compound 212, 2-amino-1-(5-hydroxy-2-methyl-phenyl)-6-(trifluoromethyl)pyrrolo[3,2-b]pyridine-3-carboxamide] | 3440
11 | Cc1ccc(O)c(C)c1-n1c(N)c(C(N)=O)c2ncc(C#CC3(O)CCC(F)(F)CC3)nc21 [Compound 242, 6-amino-3-[2-(4,4-difluoro-1-hydroxy-cyclohexyl)ethynyl]-5-(3-hydroxy-2,6-dimethyl-phenyl)pyrrolo[2,3-b]pyrazine-7-carboxamide] | < 10
12 | Cc1ccc(O)c(C)c1-n1c(N)c(C(N)=O)c2nc(C(=O)Nc3cccnc3)cnc21 [Compound 243, 6-amino-5-(3-hydroxy-2,6-dimethyl-phenyl)-N2-(3-pyridyl)pyrrolo[2,3-b]pyrazine-2,7-dicarboxamide] | 69
13 | C=C(C)c1cnc2c(n1)c(C(N)=O)c(N)n2-c1c(C)ccc(O)c1C [Compound 202] | < 10
14 | Cc1ccc(O)c(C)c1-n1c(N)c(C(N)=O)c2nc(-c3c[nH]cn3)cnc21 [Compound 65] | < 10
15 | Cc1ccc(O)c(C)c1-n1c(N)c(C(N)=O)c2nc(N3CCNCC3)cnc21 [Compound 67] | 14
16 | Cc1ccc(O)c(C)c1-n1c(N)c(C(N)=O)c2c(C)c(Cl)cnc21 [Compound 313] | < 10
17 | Cc1ccc(O)c(C)c1-n1c(N)c(C(N)=O)c2nc(C#CC3CCCN3)cnc21 (stereo not drawn) [Compound 3] | 462
18 | Cc1ccc(O)c(C)c1-n1c(N)c(C(N)=O)c2nc(N3CC4CCC(C3)O4)cnc21 [Compound 92] | < 10
19 | Cc1ccc(O)c(Cl)c1-n1c(N)c(C(N)=O)c2cc(Cl)cnc21 [Compound 327] | < 10
20 | Cc1ccc(O)c(C)c1-n1c(N)c(C(N)=O)c2ncc(C#C[C@H](C)O)nc21 [Compound 229] | 52
21 | Cc1ccc(O)c(C)c1-n1c(N)c(C(N)=O)c2ncc(C#C[C@@H]3OCC[C@@H]3Cl)nc21 [Compound 233] | 10
22 | Cc1ccc(O)c(C)c1-n1c(N)c(C(N)=O)c2c(Cl)c(Cl)cnc21 [Compound 316] | < 10
23 | Cc1ccc(O)c(Cl)c1-n1c(N)c(C(N)=O)c2nc(C3CC3)cnc21 [Compound 104] | < 10
24 | C=Cc1nc2c(C(N)=O)c(N)n(-c3c(C)ccc(O)c3C)c2nc1C(F)(F)F [Compound 102, 6-amino-5-(3-hydroxy-2,6-dimethyl-phenyl)-3-(trifluoromethyl)-2-vinyl-pyrrolo[2,3-b]pyrazine-7-carboxamide] | 13

Row | SMILES | IC50 [nM]
25 | Cc1ccc(O)c(C)c1-n1c(N)c(C(N)=O)c2cc(S(=O)(=O)C3CC3)cnc21 [Compound 311] | < 10
26 | CCN(CC)C(=O)c1cnc2c(n1)c(C(N)=O)c(N)n2-c1c(C)ccc(O)c1C [Compound 246] | 84
27 | Cc1ccc(O)cc1-n1c(N)c(C(N)=O)c2nc(C#CCC(C)(C)O)ccc21 [Compound 17] | 9060
28 | Cc1ccc(O)c(C)c1-n1c(N)c(C(N)=O)c2nc(C#CC3CCNC3)cnc21 (stereo not drawn) [Compound 279] | 250
29 | Cc1ccc(O)cc1-n1c(N)c(C(N)=O)c2ncc(-c3cn[nH]c3)nc21 [Compound 155] | 1020
30 | Cc1ccc(O)cc1-n1c(N)c(C(N)=O)c2ncc(C#Cc3ccccn3)nc21 [Compound 158] | 953
31 | CC(=O)c1c(N)n(-c2c(C)ccc(O)c2C)c2ncc(-c3cnccn3)nc12 [Compound 97, 1-[6-amino-5-(3-hydroxy-2,6-dimethyl-phenyl)-2-pyrazin-2-yl-pyrrolo[2,3-b]pyrazin-7-yl]ethenone] | 12
32 | Cc1ccc(O)c(C)c1-n1c(N)c(C(N)=O)c2nc(-c3ccncn3)cnc21 [Compound 57] | < 10
33 | Cc1ccc(O)c(C)c1-n1c(N)c(C(N)=O)c2ncc(C#CC3(C)CCCO3)nc21 (stereo not drawn) [Compound 235] | 13
34 | Cc1ccc(O)c(C)c1-n1c(N)c(C(N)=O)c2nc(-c3nccs3)c(C#CCN3CCOCC3)nc21 [Compound 216] | 76
35 | Cc1ccc(O)c(C)c1-n1c(N)c(C(N)=O)c2nc(C(N)=O)cnc21 [Compound 220, 6-amino-5-(3-hydroxy-2,6-dimethyl-phenyl)pyrrolo[2,3-b]pyrazine-2,7-dicarboxamide] | < 10
36 | Cc1ccc(O)cc1-n1c(N)c(C(N)=O)c2nc(CCCN3CCOCC3)ccc21 [Compound 18, 2-amino-1-(5-hydroxy-2-methyl-phenyl)-5-(3-morpholinopropyl)pyrrolo[3,2-b]pyridine-3-carboxamide] | 1940
37 | Cc1ccc(O)c(C)c1-n1c(N)c(C(N)=O)c2nc(C3(C(F)(F)F)CC3)cnc21 [Compound 198, 6-amino-5-(3-hydroxy-2,6-dimethyl-phenyl)-2-[1-(trifluoromethyl)cyclopropyl]pyrrolo[2,3-b]pyrazine-7-carboxamide] | < 10
38 | Cc1ccc(O)c(C)c1-n1c(N)c(C(N)=O)c2nc(C(=O)NCc3ccccc3)cnc21 [Compound 245] | 11
39 | Cc1ccc(O)cc1-n1c(N)c(C(N)=O)c2nc(-c3ccc(N)nc3)ccc21 [Compound 8] | 164
40 | Cc1ccc(O)c(C)c1-n1c(N)c(C(N)=O)c2cccnc21 [Compound 328] | < 10
41 | Cc1ccc(O)cc1-n1c(N)c(C(N)=O)c2nc(-c3cccc(C(=O)O)c3)ccc21 [Compound 9] | 363
42 | Cc1ccc(O)c(C)c1-n1c(N)c(C(N)=O)c2nc(-c3nccs3)c(C)nc21 [Compound 31, 6-amino-5-(3-hydroxy-2,6-dimethyl-phenyl)-3-methyl-2-thiazol-2-yl-pyrrolo[2,3-b]pyrazine-7-carboxamide] | < 10
43 | CC(=O)N1CCN(c2cnc3c(n2)c(C(N)=O)c(N)n3-c2c(C)ccc(O)c2C)CC1 [Compound 87] | < 10
44 | Cc1ccc(O)c(C)c1-n1c(N)c(C(N)=O)c2nc(C3=CCC(C(=O)N(C)C)CC3)cnc21 (stereo not drawn) [Compound 58] | < 10
45 | Cc1ccc(O)c(C)c1-n1c(N)c(C(N)=O)c2nc(OC3CC3)cnc21 [Compound 260, 6-amino-2-(cyclopropoxy)-5-(3-hydroxy-2,6-dimethyl-phenyl)pyrrolo[2,3-b]pyrazine-7-carboxamide] | 27
46 | Cc1ccc(O)c(C)c1-n1c(N)c(C(N)=O)c2cc(-c3ccccn3)cnc21 [Compound 295] | < 10
47 | Cc1ccc(O)c(C)c1-n1c(N)c(C(N)=O)c2nc(-c3cncs3)cnc21 [Compound 37] | < 10
48 | CNC(=O)C1CCN(c2cnc3c(n2)c(C(N)=O)c(N)n3-c2c(C)ccc(O)c2C)CC1 [Compound 46, 6-amino-5-(3-hydroxy-2,6-dimethyl-phenyl)-2-[4-(methylcarbamoyl)-1-piperidyl]pyrrolo[2,3-b]pyrazine-7-carboxamide] | < 10

— patent US20230151014A1 (Repare Therapeutics Inc., priority 2020, published 2023)
